Test results reported in patent publication US20240122179A1, “AUXINIC HERBICIDES AND METHODS OF USE THEREOF” (CORTEVA AGRISCIENCE LLC, priority 2021, published 2024).
Like-named read-outs stand apart in the source and are kept apart here.

Key:
Test in all cases: Postemergence herbicide evaluation, percent reduction in plant size vs untreated control, 21 days after treatment
[1] = system: Ambrosia artemisiifolia (AMBEL); assay type: in vivo, Ambrosia artemisiifolia (common ragweed); settings: post-emergence, 504 h, AMBEL, postemergence, read-out: Control/Injury; for pest or weed control at 140 g/ha: rate 140 g ae/ha; for pest or weed control at 280 g/ha: rate 280 g ae/ha
Experimental: (§1) Plants were grown in a soil media composed of 90% by volume Promix BX (Premier Tech Horticulture, Quakertown, PA) and 10% Profile Greens Grade (Profile Products LLC, Buffalo Grove, IL). Promix BX contains approximately 83% Sphagnum Peat Moss, 13% Perlite, 5% vermiculite, and proprietary amounts of limestone, starter fertilizer, and wetting agent. Profile Greens Grade is a sand-sized granule formed from calcining illite and montmorillonite clay. Several seeds of each species were planted in 10 cm square pots and top watered twice daily. Plant material was propagated in a warm greenhouse with temperature ranging from 25 to 28° C. and 50 to 60% relative humidity at the Corteva Global Headquarters (Indianapolis, Indiana, USA). Natural light was supplemented with 1000-watt metal halide overhead lamps with an average illumination of 500 μE m^−2 s^−1 photosynthetic active radiation for 16 consecutive hours each day. Plants were top-watered prior to herbicide application and sub-watered after herbicide application.
(§2) Appropriate amounts of test materials were weighed out into glass vials in their technical form to deliver either 140 or 280 g acid equivalent (ae)/ha. The samples were dissolved in 3 ml of Solvent 1. Solvent 1 is 97% acetone and 3% dimethyl sulfoxide and serves as a general-purpose solvent (GPS) for dissolving technical materials. […] The samples were then diluted to their final concentration using 17 ml of solvent 2 for a total of 20 ml of spray solution. Solvent 2 contains 41.58% GPS, 45.53% water, 11.88% isopropyl alcohol, 0.99% crop oil concentrate and 0.02% Trition X-155 surfactant. All percentages are listed on a volume basis. Dicamba diglycolamine was applied as a formulated herbicide, Clarity™ and diluted with solvent 2 to compare all materials in the same spray solution.
(§3) Herbicide applications were made to 3 to 4 replicates of each plant species at the 2 to 8 leaf stage, depending on the species. Treatments were applied with a research track-sprayer (Generation III Research Sprayer manufactured by DeVries Manufacturing in Hollandale, MN, USA) calibrated to deliver a spray volume of 187 L/ha. The track-sprayer was fitted with an 8003E nozzle from Spray Systems Company (North Avenue and Schmale Road, P.O. Box 7900, Wheaton, IL 60187), and used a spray pressure of 276 kPa pressure and a speed of 3.1 km/h. The nozzle height was 46 cm above the plant canopy. The experimental design used for the trials was a randomized complete block with 3 or 4 replications per treatment. After application, plants were placed on carts according to the randomization and returned to the greenhouse. Plants were sub-watered after treatment with Indianapolis city water or fertilized three times a week with a commercial fertilizer solution (Jack's Professional 15-5-15 4 Ca 2 Mg fertilizer (manufactured by JR PETERS INC., 6656 Grant Way, Allentown, PA 18106; www.jrpeters.com). Percent visual control assessments were made on a scale of 0 to 100% (where 0 was no control and 100 was complete plant death) at 7, 14, and 21 days after treatment.
(§4) In conformity with the methods outlined in Example 49, the effect of representative experimental compounds on the growth of Ambrosia artemisiifolia (AMBEL), (common ragweed), was determined at 2 different levels (respectively, 140 and 280 g acid equivalent (ae)/ha) of the experimental actives tested. Plants were treated with one of the compounds, a control plant was not treated. Twenty-one days after treatment, the plants were measured. The data is present as a percent reduction in plant size relative to the untreated control.

[2] = system: Amaranthus palmeri (AMAPA); assay type: in vivo, Amaranthus palmeri (Palmer amaranth); settings: post-emergence, 504 h, postemergence, read-out: Control/Injury; for pest or weed control at 140 g/ha: rate 140 g ae/ha; for pest or weed control at 280 g/ha: rate 280 g ae/ha
Experimental: as §1, §2, §3
as §4, with “Amaranthus palmeri (AMAPA), common name, Palmer amaranth,” for “Ambrosia artemisiifolia (AMBEL), (common ragweed),”

Amaranthus rudis (AMATA) = assay type: in vivo, Amaranthus rudis (tall water hemp); settings: Amaranthus tuberculatus, post-emergence, 504 h, AMATA, postemergence, read-out: Control/Injury; for pest or weed control at 140 g/ha: rate 140 g ae/ha; for pest or weed control at 280 g/ha: rate 280 g ae/ha
Experimental: as §1, §2, §3
as §4, with “Amaranthus rudis (AMATA), common name tall water hemp,” for “Ambrosia artemisiifolia (AMBEL), (common ragweed),”

Kochia scoparia (KCHSC) = assay type: in vivo; settings: KCHSC, postemergence; for pest or weed control at 140 g/ha / pest or weed control at 280 g/ha: Bassia scoparia, post-emergence, 504 h, read-out: Control/Injury; for pest or weed control at 280 g/ha: rate 280 g ae/ha
Experimental: as §1, §2, §3
as §4, with “Kochia scoparia (KCHSC)” for “Ambrosia artemisiifolia (AMBEL), (common ragweed),”

[3] = system: Conyza canadensis (L.) (ERICA); assay type: in vivo, Conyza canadensis (L.) (Horseweed); settings: Erigeron canadensis, post-emergence, 504 h, ERICA, postemergence, read-out: Control/Injury; for pest or weed control at 140 g/ha: rate 140 g ae/ha; for pest or weed control at 280 g/ha: rate 280 g ae/ha
Experimental: as §1, §2, §3
as §4, with “Conyza canadensis (L.), (ERICA), common name, Horseweed,” for “Ambrosia artemisiifolia (AMBEL), (common ragweed),”

[4] = R-AMAPA, percent reduction vs untreated control, 21 days after treatment
[5] = percent reduction vs untreated control, 21 days after treatment
[6] = rate 140 g ae/ha, percent reduction vs untreated, 21 days after treatment
[7] = percent reduction vs untreated, 21 days after treatment

Row | Compound | pest or weed control at 140 g/ha [1] | pest or weed control at 280 g/ha [1] | pest or weed control at 140 g/ha [2, 4] | pest or weed control at 280 g/ha [2, 4] | pest or weed control at 140 g/ha (Amaranthus rudis (AMATA)) | pest or weed control at 280 g/ha (Amaranthus rudis (AMATA)) | pest or weed control at 140 g/ha (Kochia scoparia (KCHSC); rate 140 g ae/ha) | pest or weed control at 280 g/ha (Kochia scoparia (KCHSC)) | pest or weed control at 140 g/ha [3, 5] | pest or weed control at 280 g/ha [3, 5] | also measured
1 | COc1c(Cl)ccc(Cl)c1C(=O)O/N=C/c1ccccc1 [Compound A-70] | 78% | 97% | 72% | 78% | 52% | 77% | 73% | 88% | 87% | 93% | 
2 | COc1c(Cl)ccc(Cl)c1C(=O)O/N=C(\N)c1cccc(Cl)c1 [Compound A-12] |  |  |  |  |  |  |  |  | 72% | 87% | 
3 | COc1c(Cl)ccc(Cl)c1C(=O)O/N=C(\C)c1cccnc1 [Compound A-47] | 85% | 100% | 90% | 95% |  | 75% | 98% | 100% |  |  | 
4 | COc1c(Cl)ccc(Cl)c1C(=O)O/N=C(\N)CC/C(N)=N/OC(=O)c1c(Cl)ccc(Cl)c1OC [Compound A-140] | 94% | 94% | 54% | 59% | 70% | 68% |  |  |  |  | pest or weed control at 140 g/ha (Kochia scoparia (KCHSC); [6]): 95%; pest or weed control at 280 g/ha (Kochia scoparia (KCHSC); [7]): 98%; pest or weed control at 140 g/ha [3, 7]: 83%; pest or weed control at 280 g/ha [3, 7]: 83%
5 | COc1c(Cl)ccc(Cl)c1C(=O)O/N=C(\N)c1ccc2[nH]cnc2c1 [Compound A-29] |  |  |  |  |  |  |  |  | 40% | 40% | 
6 | COc1c(Cl)ccc(Cl)c1C(=O)NNc1nc(C)cs1 [Compound A-108] | 5% | 15% |  |  | 18% | 28% |  |  |  |  | pest or weed control at 140 g/ha ([2]; AMAPA): 8%; pest or weed control at 280 g/ha ([2]; AMAPA): 28%; pest or weed control at 140 g/ha (Kochia scoparia (KCHSC); [6]): 0%; pest or weed control at 280 g/ha (Kochia scoparia (KCHSC); [7]): 3%; pest or weed control at 140 g/ha [3]: 5%; pest or weed control at 280 g/ha [3]: 8%
7 | COc1c(Cl)ccc(Cl)c1C(=O)O [Dicamba, 3,6-dichloro-2-methoxybenzoic acid, reference compound] | 97% | 100% |  |  | 99% | 90% |  |  |  |  | pest or weed control at 140 g/ha ([2]; AMAPA): 78%; pest or weed control at 280 g/ha ([2]; AMAPA): 94%; pest or weed control at 140 g/ha (Kochia scoparia (KCHSC); [6]): 94%; pest or weed control at 280 g/ha (Kochia scoparia (KCHSC); [7]): 97%; pest or weed control at 140 g/ha [3]: 94%; pest or weed control at 280 g/ha [3]: 100%
8 | COc1c(Cl)ccc(Cl)c1C(=O)O/N=C/C(C)=O [Compound A-69] | 80% | 96% | 70% | 80% | 67% | 80% | 91% | 96% | 88% | 91% | 
9 | COc1c(Cl)ccc(Cl)c1C(=O)O/N=C(\N)c1cccc2ccccc12 [Compound A-30] |  |  |  |  |  |  |  |  | 50% | 22% | 
10 | COc1c(Cl)ccc(Cl)c1C(=O)O/N=C(\N)c1ccc2[nH]ccc2c1 [Compound A-28] |  |  |  |  |  |  |  |  | 70% | 83% | 
11 | COc1c(Cl)ccc(Cl)c1C(=O)Nc1ccncc1 [Compound A-61] | 99% | 98% | 85% | 100% | 85% | 90% | 98% | 99% |  |  | 
12 | COc1c(Cl)ccc(Cl)c1C(=O)OCc1ccccc1 [Compound A-44] |  | 80% | 80% | 85% |  | 60% | 60% | 90% |  |  | Control/Injury (Kochia scoparia (KCHSC); rate 140 g ae/ha): 60
13 | COc1c(Cl)ccc(Cl)c1C(=O)O/N=C(\N)c1cc(Cl)cc(Cl)c1 [Compound A-16] |  |  |  |  |  |  |  |  | 68% | 78% | 
14 | COc1c(Cl)ccc(Cl)c1C(=O)C(Cl)(Cl)Cl [Compound A-96] |  |  |  |  |  |  |  |  | 0% | 0% | 
15 | COc1c(Cl)ccc(Cl)c1C(=O)O/N=C/c1ccc(/C=N/OC(=O)c2c(Cl)ccc(Cl)c2OC)cc1 [Compound A-57] | 95% | 98% |  | 100% | 95% |  | 92% | 100% |  |  | 
